Reference: patent US20030165579A1, “Euphorbia antiquorum extract, a pharmaceutical composition containing the same and methods for treatment of cancers” (priority 2002, published 2003)

What was measured:
[1] = tested on: P-388 lymphocytic leukemia; conditions: mice; cited from earlier work
hepatoma = conditions: cited from earlier work
COLO 205 = assay: Cell proliferation assay (MTS) on COLO 205; type: cell-based, Human; conditions: for Cell Growth: positive control
Procedure: (§1) The ability of extract of Euphorbia antiquorum described in Example 1 to inhibit the growth of five different human tumor cell lines was tested. The activity of Doxorubicin, a currently clinically used chemotherapeutic agent, against the tumor cell lines was tested as a control.
(§2) Five human tumor cell lines COLO 205, HT-29, U-937, MOLT4 and HA22T/VGH, were tested in this example (Table 3).
(§3) All five cancer cell lines were stored in liquid nitrogen. After thawing, cells were maintained as monolayer in appropriate medium (GIBCO, USA) supplemented with 10% fetal bovine serum, sodium bicarbonate, L-glutamine (2 mM), streptomycin (100 μg/ml) and penicillin-G (100 units/ml) in a humidified incubator at 37±1° C. and 5% CO2 in air.
(§4) Exponentially growing human cancer cells were seeded in an appropriate medium in 96-well ELISA microtiter plates. The number of cells for each cell line plated in 96-well plates was determined from the growth curve obtained in MTS assay (600 to 20,000 cells depending on cell line). These plates of adherent cells were incubated overnight. Six well cultures were used for each concentration of MH801 of the invention and for negative and positive control cultures.
(§5) MH801 was dissolved in culture medium. […] Since the solution prepared in culture medium at working concentration can be used directly rather than a stock solution at 200 fold concentration in DMSO, culture medium, instead of DMSO, was used as vehicle in the present invention. Maximum concentration for this assay was 10 mg/ml. Serial ten fold dilution was used in this invention, and therefore, the concentrations were 10, 1, 0.1, 0.01 and 0.001 mg/ml. After sufficient mixing, this solution was passed through filter of 0.2 μm pore size for sterility. Filtrate was serially diluted with culture medium to desired concentrations for treatment.
(§6) After three days of culture, the viable cells were counted by changing the culture medium containing a tetrazolium compound
(§7) (3-4,5-dimethylthiazol-2-yl)-5(3-carboxymethoxyphenyl)-2-(4-sulfophenyl)-2H-tetrazolium, inner salt and an electron coupling reagent to measure mitochondrial enzyme activity. The absorbance at […] was measured after 2 hours to 4 hours reaction time. Cell growth % is calculated using the following equations: [formula]
(§8) Doxourbicin was used as positive control for assay system evaluation and was prepared in dimethyl sulfoxide (Merck Art. 2931, Germany) as stock solution to be added to culture medium.

HT-29 = assay: Cell proliferation assay (MTS) on HT-29; type: cell-based, Human; conditions: for Cell Growth: positive control
Procedure: as §1, §2, §3, §4
as §5, with “After sufficient mixing, this solution was passed through filter of 0.2 μm pore size for sterility. Filtrate was serially diluted with culture medium to desired concentrations for treatment.” left out
as §6
as §7, with “[formula] […]” for “[formula]”

U-937 = assay: Cell proliferation assay (MTS) on U-937; type: cell-based, Human; conditions: for Cell Growth: positive control
Procedure: as §1, §2, §3, §4, §5, §6, §7, §8

MOLT 4 = assay: Cell proliferation assay (MTS) on MOLT 4; type: cell-based, Human; conditions: for Cell Growth: positive control
Procedure: as §1, §2, §3, §4, §5, §6, §7, §8

HA22T/VGH = assay: Cell proliferation assay (MTS) on HA22T/VGH; type: cell-based, Human; conditions: positive control
Procedure: as §1, §2, §3, §4, §5, §6, §7, §8

tumors = conditions: chemotherapy, tumor control; cited from earlier work
[2] = tested on: Ehrlich acites tumor cell; conditions: Planta Med. 62, 322-5, 1996; cited from earlier work

## CC1=C[C@]23C(=O)[C@@H](C=C(COC(=O)c4ccccc4)[C@@H](O)[C@]2(O)[C@H]1OC(=O)c1ccccc1)[C@H]1[C@@H](C[C@H]3C)C1(C)C [Ingenol 3,20-debenzoate]
[1]
  antileukemic activity against P-388 lymphocytic leukemia: antileukemic activity

## O=c1[nH]cc(F)c(=O)[nH]1 [5-FU]
hepatoma; 62 hepatoma patients, hepatic intra-arterial infusion
  patients responded to the medicine: 48%
hepatoma; hepatoma patients who did not respond
  survival, non-responders: 1.8 months
hepatoma; hepatoma patients who responded
  survival in average, responders: 6.9 months

## COc1cccc2c1C(=O)c1c(O)c3c(c(O)c1C2=O)C[C@@](O)(C(=O)CO)C[C@@H]3O[C@H]1C[C@H](N)[C@H](O)[C@H](C)O1 [Doxorubicin]
COLO 205; COLO 205, 0.058 μg/ml
  Cell Growth: 63.2%
COLO 205; COLO 205, 0.58 μg/ml
  Cell Growth: 33.8%
COLO 205; COLO 205, 5.8 μg/ml
  Cell Growth: 8.23%
COLO 205; COLO 205, positive control
  antiproliferative effect: very strong antiproliferative effect
HT-29; HT-29, 1.74 μg/ml
  Cell Growth: 35%
HT-29; HT-29, 3.48 μg/ml
  Cell Growth: 15.9%
HT-29; HT-29, positive control
  antiproliferative effect: very strong antiproliferative effect
U-937; U-937, 0.0058 μg/ml
  Cell Growth: 100.5%
U-937; U-937, 0.058 μg/ml
  Cell Growth: 80.9%
U-937; U-937, 0.58 μg/ml
  Cell Growth: 3.7%
U-937; U-937, 5.8 μg/ml
  Cell Growth: 1.6%
U-937; U-937, positive control
  antiproliferative effect: very strong antiproliferative effect
MOLT 4; MOLT 4, 0.0058 μg/ml
  Cell Growth: 71.2%
MOLT 4; MOLT 4, 0.058 μg/ml
  Cell Growth: 0%
MOLT 4; MOLT 4, 0.58 μg/ml
  Cell Growth: 0%
MOLT 4; MOLT 4, 5.8 μg/ml
  Cell Growth: 0%
MOLT 4; MOLT 4, positive control
  antiproliferative effect: very strong antiproliferative effect
HA22T/VGH; 0.0058 μg/ml
  Cell Growth: 103%
HA22T/VGH; 0.058 μg/ml
  Cell Growth: 81.53%
HA22T/VGH; 0.58 μg/ml
  Cell Growth: 38.8%
HA22T/VGH; 5.8 μg/ml
  Cell Growth: 14.4%
HA22T/VGH
  antiproliferative effect: very strong antiproliferative effect
tumors
  remission effect: 15-23%

## CCCCCCCCCCCCCCCC(=O)OC[C@@]12O[C@@H]1[C@@H]1C(=O)[C@]3(C=C(C)[C@H](OC(=O)C(C)C(C)C)[C@@]3(O)[C@@H]2O)[C@H](C)C[C@]2(OC(=O)CCCCCCCCCCC)[C@H]1C2(C)C (stereo partly shown) [6,7-epoxy-13-hydroxyingenol-3-(2,3-dimethylbutanoate)-13 dodecanoate-20-hexadecanoate]
[1]
  antileukemic activity against P-388 lymphocytic leukemia: antileukemic effect

## CCCCCCCCCCCCCCCC(=O)OCC1=C[C@@H]2C(=O)[C@]3(C=C(C)[C@H](OC(=O)C(C)C(C)C)[C@@]3(O)[C@@H]1O)[C@H](C)C[C@]1(OC(=O)CCCCCCCCCCC)[C@H]2C1(C)C (stereo partly shown) [13-hydroxyingenol-3-(2,3-dimethylbutanoate)-13-dodecanoate-20-hexadecanoate]
[1]
  antileukemic activity against P-388 lymphocytic leukemia: antileukemic effect

## 9,19-cycloart-23-ene-3 β,24-diol
[2]
  inhibitory activity against Ehrlich acites tumor cell: significant inhibitory activity

## C/C=C(\C)C(=O)O[C@@H]1[C@@H](C)[C@@]2(O)[C@@H](C=C(CO)C[C@]3(O)C(=O)C(C)=C[C@@H]23)[C@@H]2C(C)(C)[C@]12OC(=O)CCCCCCCCC [phorbol 12-tiglate 13-decanoate]
[1]
  antileukemic activity against P-388 lymphocytic leukemia: antileukemic activity
